Measured values: patent publication US20250064762A1, “A SUBSTITUTED AROMATIC DICARBONIC ACID AMIDE AS AN INHIBITOR OF THE FERROPTOSIS SUPPRESSOR PROTEIN-1 (FSP1)” (JULIUS-MAXIMILIANS-UNIVERSITÄT WÜRZBURG, priority 2021, published 2025)

Legend:
murine PGP = molecular target: T1, murine PGP (Mus musculus, UniProt Q8CHP8); test: In vitro phosphoglycolate phosphatase assay (malachite green); assay type: biochemical
T1 construct: made in house
T1 sequence (Q8CHP8 1-321): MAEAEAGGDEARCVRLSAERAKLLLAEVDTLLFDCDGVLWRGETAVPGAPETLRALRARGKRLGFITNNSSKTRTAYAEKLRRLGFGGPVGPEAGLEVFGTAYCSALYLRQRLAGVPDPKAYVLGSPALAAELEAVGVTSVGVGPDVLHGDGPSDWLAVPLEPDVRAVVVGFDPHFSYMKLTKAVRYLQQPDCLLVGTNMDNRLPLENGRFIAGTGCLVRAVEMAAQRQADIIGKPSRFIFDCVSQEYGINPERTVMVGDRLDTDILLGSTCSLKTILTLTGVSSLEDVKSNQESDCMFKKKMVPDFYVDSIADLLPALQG
Procedure: Recombinant, purified murine phosphoglycolate phosphatase (PGP) was expressed and purified as described (Seifried et al., 2014). Experiments were performed in TNM30 (30 mM triethanolamine, 30 mM NaCl, 5 mM MgCl2; PH 7.5), supplemented with 0.01% (v/v) Triton X-100 and 5 mM dithiothreitol (DTT). Assays were conducted at room temperature in a final reaction volume of 50 μL in 96-well microtiter plates. PGP (5.7 nM) was pre-incubated with the compounds or the DMSO solvent control for 10 min, and enzyme reactions were started by the addition of the substrate phosphoglycolate (PG, 200 μM). Buffer without enzyme served as a background control. Inorganic phosphate release from PG was detected with malachite green solution (Biomol Green; Enzo Life Sciences). The absorbance at 620 nm (A620) was measured on an Envision 2104 multilabel microtiter plate reader (Perkin Elmer Life Sciences). Released phosphate was determined by converting the values to nmol Pi with a phosphate standard curve. Data were analyzed with GraphPad Prism version 7.0.5. For IC50 determinations, loginhibitor versus response was calculated for a Hill slope of −1.
Free inorganic phosphate released by PG dephosphorylation was quantified using malachite green.

IHH, AML12, RAW264.7 = test: FIN56 toxicity in non-transformed hepatocytes and a monocyte/macrophage cell line; assay type: cell-based; conditions: CPBA 100 μM, iFSP1 10 μM; 16 h
Procedure: Cell culture media and supplements were from Thermo Fisher Scientific, unless specified otherwise. Mouse embryonic fibroblasts (MEFs) were generated from Pgp-wildtype (Pgp^fl/fl) or heterozygous Pgp-inactivated mouse embryos (Pgp^fl/D34N) as described (Segerer et al., 2016). […]
Cells were seeded onto 96-well plates (5,000 cells per well), and treated with serial dilutions of ferroptosis-inducing compounds (erastin, BSO, RSL3, FIN56) or cytotoxic drugs (staurosporine, nocodazole, tunicamycin, paclitaxel, etoposide, menadione, rotenone, FCCP, carboplatin) in the absence or presence of CPBA or iFSP1 (100 μM or 10 μM, respectively; unless stated otherwise) or the DMSO solvent control. Ferroptotic cell death was evaluated by incubating in the absence or presence of liproxstatin-1 (100 nM), ferrostatin-1 (200 nM), or deferoxamine (100 μM). Cell viability was assessed after 16 h using AquaBluer as an indicator of viable cells according to the manufacturer's recommendations (MultiTarget Pharmaceuticals, LLC). Fluorescence (excitation, 540 nm; emission, 590 nm) was analyzed on a Clariostar microplater reader. […]

Row | Compound | inhibition of PGP (murine PGP) | toxicity of FIN56 in non-transformed cell lines on addition of the compound (IHH, AML12, RAW264.7)
1 | O=C(Nc1ccccc1C(=O)O)c1ccc(Oc2ccc(C(=O)Nc3ccccc3C(=O)O)cc2)cc1 [CPBA, 2-[[4-[4-[(2-carboxyphenyl)carbamoyl]phenoxy]benzoyl]amino]-benzoic acid] | inhibitor of PGP | 
2 | Cc1ccc(-c2c(C#N)c(N)n3c(nc4ccccc43)c2C#N)cc1 [iFSP1, reference compound] |  | not markedly increased by the addition of CPBA or iFSP1
